Test results as given in patent publication US6558900B2, “Regulation of apoptosis and in vitro model for studies thereof” (Emory University, priority 1996, dated 2003).
“Also recorded” adds a separate entry of the source.

What was measured:
hamster liver nuclei = assay: DNA fragmentation assay (HeLa S-100 incubated with hamster liver nuclei); assay type: biochemical; details: 1 mM nucleotide, 37° C., 2 hr
Procedure: FIGS. 1A-1D illustrate dATP-dependent activation of CPP32 and DNA fragmentation in vitro. Aliquots (10 μl) of HeLa cell S-100 (50 μg) were incubated alone (lane 1), in the presence of 1 mM ATP (lane 2), or in the presence of 1 mM dATP (lane 3) at 30° C. for 1 hr in a final volume of 20 μl of buffer A. FIG. 1A, samples were subjected to SDS-PAGE and transferred to a nitrocellulose filter, probed with a monoclonal anti-CPP32 antibody, and the antigen/antibody complex was visualized by the ECL method. The filter was exposed to Kodak X-OMAT AR X-ray film for 1 min. In FIG. 1B, an aliquot of 10 μl of in vitro translated, ^35S-labeled PARP was added to each reaction. After 5 min, the samples were subjected to SDS-PAGE and transferred to a nitrocellulose filter. The filter was exposed to film for 2 hr at room temperature. In FIG. 1C, a 5 μl aliquot of in vitro translated, ^35S-labeled SREBP-2 was added to each reaction. After incubation at 30° C. for 30 min, the samples were subjected to SDS-PAGE, the gel was dried and exposed to film for 2 hr at room temperature. […]
FIGS. 2A-2B illustrate the nucleotide specificity for in vitro activation of CPP32 and DNA fragmentation. […] The DNA was isolated, analyzed by 2% agarose gel electrophoresis and visualized by ethidium bromide staining. […]

CPP32 = assay: Activation of endogenous CPP32 in HeLa cell S-100 (Western blot; cleavage of 35S-labeled PARP and SREBP-2); assay type: biochemical, human; details: 1 mM nucleotide, 30° C., 1 hr, Western blot
Procedure: FIGS. 1A-1D illustrate dATP-dependent activation of CPP32 and DNA fragmentation in vitro. Aliquots (10 μl) of HeLa cell S-100 (50 μg) were incubated alone (lane 1), in the presence of 1 mM ATP (lane 2), or in the presence of 1 mM dATP (lane 3) at 30° C. for 1 hr in a final volume of 20 μl of buffer A. FIG. 1A, samples were subjected to SDS-PAGE and transferred to a nitrocellulose filter, probed with a monoclonal anti-CPP32 antibody, and the antigen/antibody complex was visualized by the ECL method. The filter was exposed to Kodak X-OMAT AR X-ray film for 1 min. In FIG. 1B, an aliquot of 10 μl of in vitro translated, ^35S-labeled PARP was added to each reaction. After 5 min, the samples were subjected to SDS-PAGE and transferred to a nitrocellulose filter. The filter was exposed to film for 2 hr at room temperature. In FIG. 1C, a 5 μl aliquot of in vitro translated, ^35S-labeled SREBP-2 was added to each reaction. After incubation at 30° C. for 30 min, the samples were subjected to SDS-PAGE, the gel was dried and exposed to film for 2 hr at room temperature. In FIG. 1D, a 50 μlaliquot of HeLa cell S-100 (250 μg) was incubated with 6 μl Hamster Liver nuclei in the absence (lane 1), or presence of 1 mM ATP (lane 2) or dATP (lane 3) for 2 hr at 37° C. in a final volume of 60 μl of buffer A. DNA was isolated as described in the Examples and size-separated by agarose gel electrophoresis (2% agarose), and the DNA was visualized by ethidium bromide staining.
Activation of CPP32 and DNA fragmentation are two well characterized biochemical markers of apoptosis and its initiation. With the goal of producing an in vitro system that duplicates apoptosis, we prepared 100,000×g cytosolic supernatant (S-100) from suspension cultures of HeLa cells. The activation of CPP32 is the result of cleavage of its 32 kDa precursor into the 20 kDa NH2-terminal fragment and 11 kDa COOH-terminal fragment [Nicholson et al. (1995) supra], thus the activation of CPP32 in the HeLa cell S-100 was monitored by Western blot analysis using a monoclonal antibody against the 20 kDa fragment of CPP32 (FIG. 1A). The enzymatic activity of CPP32 was assayed by measuring the cleavage of two ^35S-labeled substrates, PARP (FIG. 1B) and SREBP-2 (FIG. 1C). DNA fragmentation was assayed by incubating the HeLa cell S-100 with nuclei isolated from hamster liver followed by genomic DNA extraction and analysis by agarose gel electrophoresis. […] The sizes of the cleaved products of PARP and SREBP-2 were the same as observed in cells undergoing apoptosis [Kaufmann et al. (1993) Cancer Res. 53, 3976-3985; Wang et al. (1996) supra]. […]

U937 cells = assay: Staurosporine treatment of human monoblastic U937 cells; assay type: cell-based
variety of cell types = details: cited from earlier work
HeLa cells = assay: Staurosporine treatment of HeLa cells: cytochrome c in S-cytosol and PARP cleavage; assay type: cell-based, human; details: 1 μM, 6 hr
Procedure: HeLa cells were treated as described in FIG. 9. On day 2, staurosporine at a final concentration of 1 μM was added to the medium as indicated. After incubation at 37° C. for 6 hr, the cells were harvested and S-cytosols were prepared as described in FIG. 9. In FIG. 10A, a 50 μg aliquot of HeLa cell S-100 as in FIGS. 1-7 (lane 1), or S-cytosol from HeLa cells (lane 2), or S-cytosol from HeLa cells treated with staurosporine for 6 hr. In lane 4, aliquot of 0.2 μg of Apaf-2 purified through Mono S column step. Proteins were separated using 15% SDS-PAGE, transferred to a nitrocellulose filter, and probed with a monoclonal anti-cytochrome c antibody and the antigen/antibody complex was visualized by the ECL method as described herein. Kodak X-OMAT AR X-ray film was exposed for 15 seconds. The arrow denotes the position of cytochrome c; X denotes protein bands cross-reacting with this antibody. In FIG. 10B, aliquots containing 4.5 μg of S-cytosol from HeLa cells (−staurosporine) or HeLa cells treated with 1 μM staurosporine for 6 hr (+staurosporine) were incubated with 10 μl aliquots of in vitro translated, 35S-labeled PARP for 30 min at 30° C. in a volume of 20 μl of buffer A. Samples were then subjected to 12% SDS-PAGE, transferred to a nitrocellulose filter, and film was exposed for 4 hr at room temperature.
HeLa cells were treated with staurosporine. […]

Row | SMILES | DNA fragmentation in hamster liver nuclei (hamster liver nuclei) | activation of CPP32 in HeLa cell S-100 (CPP32) | cytochrome c in cytosol / CPP32 activation (U937 cells) | initiation of apoptosis (variety of cell types) | activation of endogenous CPP32 detected by cleavage of PARP (HeLa cells) | cytochrome c in S-cytosol (HeLa cells; vs non-treated cells)
1 | Nc1ncnc2c1ncn2[C@@H]1O[C@H](COP(=O)(O)OP(=O)(O)OP(=O)(O)O)[C@@H](O)[C@H]1O [ATP] | Such fragmentation did not occur | no activation of CPP32 was observed |  |  |  | 
2 | CN[C@@H]1C[C@H]2O[C@@](C)([C@@H]1OC)n1c3ccccc3c3c4c(c5c6ccccc6n2c5c31)C(=O)NC4 [staurosporine] |  |  | The same phenomenon was also observed | potent apoptosis inducer | resulted in activation of the endogenous CPP32 | increased release of cytochrome c to the cytosol; also recorded: markedly elevated cytochrome c; also recorded: increased cytosolic cytochrome c
